Laboratory results: patent US20210395694A1, “METHOD FOR PROMOTING PRODUCTION OF EXOSOMES AND/OR EXTRACELLULAR VESICLES” (ExoCoBio Inc., priority 2019, published 2021)

Key:
[1] = tested on: Human adipose-derived stem cells; experiment: Nanoparticle tracking analysis (NTA) of exosomes isolated from conditioned medium of stem cells cultured with ascorbic acid; type: cell-based
Experimental: Human adipose-derived stem cells were suspended in a-MEM culture medium containing 10% fetal bovine serum (FBS), 100 units/mL penicillin and 100 μg/mL streptomycin, and then seeded into a 6-well plate at a density of 6,000 cells/cm^2 and cultured in an incubator at 37° C. under 5% CO2. For ascorbic acid-treated groups, 24 hours after seeding, ascorbic acid was added to the culture medium at a concentration of 10 μg/mL, 30 μg/mL and 100 μg/mL, respectively. In all of the ascorbic acid-treated groups and the untreated group, when the adipose-derived stem cells reached a confluency of 80% or more, the culture medium was replaced with α-MEM medium containing 100 units/mL penicillin and 100 μg/mL streptomycin (hereinafter referred to as “serum-free medium” or “SFM”), or α-MEM medium containing 2% FBS from which FBS-derived exosomes and extracellular vesicles have been removed, 100 units/mL penicillin and 100 μg/mL streptomycin (hereinafter referred to as “extracellular vesicles-depleted medium” or “EDM”). […] After completion of recovery of the conditioned medium, the cells were counted using a cell counter. […] The particle size and concentration of the isolated exosomes were measured by nanoparticle tracking analysis (NTA) instrument (purchased from Malvern).

[2] = tested on: Human adipose-derived stem cells; experiment: Exosome CD63 content by flow cytometry (PE MFI against a human CD63 standard curve); type: cell-based; conditions: CD63 content per mL; compared to the untreated control group; FIG. 3
Experimental: Human adipose-derived stem cells were suspended in a-MEM culture medium containing 10% fetal bovine serum (FBS), 100 units/mL penicillin and 100 μg/mL streptomycin, and then seeded into a 6-well plate at a density of 6,000 cells/cm^2 and cultured in an incubator at 37° C. under 5% CO2. For ascorbic acid-treated groups, 24 hours after seeding, ascorbic acid was added to the culture medium at a concentration of 10 μg/mL, 30 μg/mL and 100 μg/mL, respectively.
In all of the ascorbic acid-treated groups and the untreated group, when the adipose-derived stem cells reached a confluency of 80% or more, the culture medium was replaced with α-MEM medium containing 100 units/mL penicillin and 100 μg/mL streptomycin (hereinafter referred to as “serum-free medium” or “SFM”), or α-MEM medium containing 2% FBS from which FBS-derived exosomes and extracellular vesicles have been removed, 100 units/mL penicillin and 100 μg/mL streptomycin (hereinafter referred to as “extracellular vesicles-depleted medium” or “EDM”). In the ascorbic acid-treated groups, ascorbic acid was added to each of the serum-free medium and the extracellular vesicles-depleted medium at a concentration of 10 μg/mL, 30 μg/mL and 100 μg/mL, respectively. […] After completion of recovery of the conditioned medium, the cells were counted using a cell counter. […]

SMILES: O=C1O[C@H]([C@@H](O)CO)C(O)=C1O [ascorbic acid]
- productivity (i.e., the number of exosome particles per mL) ([1]; compared with the control group not treated with ascorbic acid, FIG. 2): increased by approximately four times or more
- particle size distribution of the exosomes ([1]; stem cells pre-treated and cultured in medium containing ascorbic acid vs medium not containing ascorbic acid, FIG. 1 (0, 30, 100 μg/mL)): more uniform particle size distribution
- content of the exosomes (i.e., the content of CD63) [2]: remarkably increased
